# Measurements reported in patent US7001616B2, “Microspheres for use in the treatment of cancer” (University of Florida, priority 1998, dated 2006).
# Structures can show the parent of a compound that is named as a salt.
# Assays:
# Assay type in all cases: physicochemical
# [1] = Total percent loading of microspheres with FUDR; conditions: 5 mg/ml FUDR in methanol; 50/49/1 microspheres, 50–80 μm
# Protocol: (§1) Initial FUDR Test. 150 mg of 50–80 μm diameter EMA/DEA/DVB (in a ratio of 50/49/1) microspheres were washed twice with methanol, dried and then immersed in 1 ml of methanol containing 5 mg FUDR. After 24 hours the methanol was allowed to evaporate and the loaded spheres were dispersed in 50 ml of distilled water and centrifuged repeatedly for 10 cycles. The spheres were collected and allowed to dry in a cone filter under the hood for 24 hours. 10 mg of the loaded spheres were placed in each of two separate vials containing either 15 ml of pH 6.8 citric acid buffer (0.05 M I=0.3) or pH 7.4 potassium phosphate monobasic-NaOH buffer (0.05M, Fisher Scientific). Each vial was agitated by hand daily and a total of 5 samples (5 ml each) were taken over a 14 day period and measured spectrophotometrically at 268 nm to determine the FUDR concentration in solution. Each sample was replaced using fresh buffer. The total percent loading was determined by the same process after placing a 10 mg sample of spheres into 15 ml of pH 4.0 citric acid buffer for 24 hours.
# [2] = In vitro FUDR release from microspheres in buffer; conditions: 50/49/1 microspheres
# Protocol: as §1
# Follow-up FUDR Release. […] Sample volumes of 5 ml and 3 ml were taken from the pH 6.6 and 6.9 buffers, respectively.
# [3] = Total percent loading of microspheres with test dye; conditions: 9-aminoacridine, 100 mg per ml of methanol; spheres from suspension polymerization
# Protocol: (§2) All four compositions produced in Example 1 were tested for release properties using 9-aminoacridine (Aldrich) (free from HCl) as a test dye. A 100–150 mg sample of each composition (from the 50–80 μm size group) was first washed twice with methanol, allowed to dry, and then immersed in a saturated solution of 9-aminoacridine in methanol (10 wt %) for 24 hours. The methanol was allowed to evaporate (usually for 24 hours) and the microspheres were washed by a repeated process of suspension and centrifuging (Adams Dynac centrifuge) in fresh neutral pH water (at least 10 cycles). The loaded spheres were collected in a paper filter cone and dried in an oven at 60° C. under vacuum.
# For each composition, 5 mg of dye-loaded spheres were placed in glass vials (Fisher 20 ml scintillation vials) containing 15 ml of citric acid buffer (0.05 M, I=0.3) at pH 6.0, 6.5, and 6.8. The buffer solutions consisted of citric acid (anhydrous, Fisher Scientific), NaOH (Fisher Scientific), deionized water, and NaCl (Aldrich). A total of three samples were used from each composition at each pH value to account for error involved with the weighing of the microspheres. At least five samples (5 ml each) were taken from each vial over a 14 day period and the concentration of dye released was determined spectrophotometrically at 400 nm using a Perkin-Elmer Lambda 3B UV/VIS spectrophotometer. […]
# [4] = Release of test dye from microspheres in buffer over 14 days
# Protocol: as §2
# […] […] A total of three samples were used from each composition at each pH value to account for error involved with the weighing of the microspheres. At least five samples (5 ml each) were taken from each vial over a 14 day period and the concentration of dye released was determined spectrophotometrically at 400 nm using a Perkin-Elmer Lambda 3B UV/VIS spectrophotometer. Each sample was replaced with fresh buffer solution. A 5 mg sample of each composition was also placed into 15 ml of pH 2.5 citric acid buffer (0.05 M) for 24 hours to determine the total percent loading (mg dye released/mg loaded spheres) for the microspheres.
# [5] = In vitro doxorubicin release from microspheres in buffer; conditions: pH 6.75; 50/49/1 microspheres
# Protocol: Doxorubicin Release. The doxorubicin release experiments were carried out in the same manner as the FUDR and dye release. 150 mg of 50–80 μm diameter microspheres were cleaned and immersed in 1 ml of methanol containing 5 mg of the drug for 24 hours and the methanol was allowed to evaporate slowly under the hood. The loaded microspheres were cleaned and dried and 10 mg samples were placed into 20 ml glass vials (Fisher Scientific). 15 ml of citric acid buffer was placed into each vial such that there were three samples each at pH values of 6.6, 6.75, and 6.9. Drug release at pH 7.4 was performed using 15 ml potassium phosphate buffer added to each of the remaining three vials. Drug release was measured spectrophotometrically at 479 nm.
structure (smiles),measurement,setting,value
"O=c1[nH]c(=O)n([C@H]2C[C@H](O)[C@@H](CO)O2)cc1F [FUDR, fluorodeoxyuridine]",FUDR loading level,[1],1.4 weight percentage
same,FUDR release over 14 day period,[2]; pH 6.8,80%
same,FUDR 14 day release,[2]; pH 6.9,55%
same,FUDR release,[2]; pH 7.4,over 10%
"Nc1c2ccccc2nc2ccccc12 [test dye, 9-aminoacridine]",dye loading as restated in text,[3],about 15%
same,test dye release after 14 days,[4]; pH 6.8 citric acid buffer,76%
same,test dye release after 14 days,[4]; pH 6.9 citric acid buffer,63%
same,test dye release after two weeks,[4]; pH 7.4 potassium phosphate monobasic-NaOH buffer,over 10%
"COc1cccc2c1C(=O)c1c(O)c3c(c(O)c1C2=O)C[C@@](O)(C(=O)CO)C[C@@H]3O[C@H]1C[C@H](N)[C@H](O)[C@H](C)O1 [doxorubicin, hydroxydaunomycin hydrochloride]",doxorubicin release over two week period,[5],75%
